Test results as given in patent US20260315499A1, “2'- {HETEROCYCLYL (ARYL/ALKYL) METHYL} - CANNABIDIOL COMPOUNDS AND PROCESS FOR PREPARATION THEREOF” (COUNCIL OF SCIENTIFIC & INDUSTRIAL RESEARCH, priority 2023, published 2026).
Where two headings read alike, the source gives them in different places.

Columns and labels:
[1] = Cell viability assay in differentiated neuronal cells (MTT), N2A; type: cell-based; conditions: mouse, read-out: % Cell viability ± SD, N2A
Source text: In the present disclosure outlined herein, a focused library of cannabidiol analogues were studied for possible neuro-protective potential employing cell line-based stress model systems which mimic the biological stress conditions in vitro (J Cell Biochem., 2018, 119(8), 6482-6491).
(§1) Human neuroblastoma cells (SHSY5Y) and mouse neuroblastoma cells (N2A) were procured from American Type Culture Collection (ATCC). SHSY5Y cell cultures were maintained in DMEM F12 (Invitrogen) whereas N2A were cultured in DMEM (Invitrogen) with 10% Fetal Bovine Serum (Gibco) medium, subjected to differentiation to acquire neuronal morphology (employing differentiation media DMEM-F12, 3-5% FBS, (For differentiation, low concentration of FBS was used) and 50 μM retinoic acid). Differentiated cells were later seeded into 96 well plates, at a density of 1×10^4 before being incubated for 48 hrs with the synthesized library. The exhausted culture media was substituted with new culture media containing 0.5 mg/ml MTT dye. Eventually, the OD at 490 nm excitation was measured using a 96-well plate reader. The proportion of viable cells was determined as percentage of absorbance of untreated cultures relative to control.

[2] = system: differentiated human neuroblastoma cell line SHSY5Y; test: In vitro neuroprotection against corticosterone, differentiated SHSY5Y, 48 hrs; type: cell-based
Method: as §1
In the next attempt, the neuroprotective properties of the generated library (20 μM, 48 hrs) were assessed employing differentiated human neuroblastoma cell line SHSY5Y and mouse neuroblastoma cell line N2A (Biomol Ther., 2022, 30(6), 570-575). The cells were assaulted with the neurotoxic corticosterone (Cort, 400 μM) for 24 hrs after the overnight preincubation of cells with test molecules as a selection criterion. […]

[3] = system: TrkB stable cells SHSY5Y; test: Cytoprotective effect in TrkB stable cells SHSY5Y, 96 hrs; type: cell-based, human; conditions: 96 hrs; for viability at 20 µM: Homo sapiens, SH-SY5Y, 96 h, read-out: % Cell viability ± SD
Method: In another experiment, the cytoprotective effect of A1 as well as parent molecule B1 was determined in TrkB stable cells SHSY5Y.

[4] = system: Anti BDNF; test: Survival pathway protein expression by western blotting in SHSY5Y; type: cell-based, human
Method: (§2) Here, A1 was tested to find its role in eliciting survival pathway proteins in differentiated human neuroblastoma cells in concentration and time dependent manner.
(§3) To investigate the effect of A1 on the survival proteins, SHSY5Y cell cultures were treated with different concentrations for 6 hrs and analyzed for the expression of survival proteins, including p-Erk 44/42, p-AKT 473, Anti BDNF, and p TrkB 816 and p TrKB 515 by western blotting.

[5] = system: p TrkB 515; test: as above; type: cell-based, human
Method: as §2, §3

[6] = system: p TrkB 816; test: as above; type: cell-based, human
Method: as §2, §3

[7] = system: p-Erk 44/42; test: as above; type: cell-based, human; conditions: for Relative Protein Expression p ERK 44/42: 6 hrs
Method: as §2, §3

[8] = system: nitric oxide (NO) production in RAW264.7 macrophages; test: In vitro anti-inflammatory activity: nitric oxide production (Griess) in LPS-exposed RAW264.7 macrophages; type: cell-based, mouse; conditions: Mus musculus, RAW264.7, LPS 24 hrs, read-out: % NO Inhibition ± SD
Method: Measurement of Nitric oxide: RAW264.7 macrophages were seeded in 96-well plates with a density of 0.5×10^5 cells/well and incubated overnight at 37° C. in a 5% CO2 atmosphere. The cells were treated with different concentration of CBD and its analogues and exposed to LPS for 24 hrs. For nitric oxide (NO) determination, the cell culture supernatant was taken and mixed with equal volume of Griess reagent in another 96 well plate at room temperature (Biomed Pharmacother., 2017, 92, 175-186). The absorbance was measured at 540 nm. The final calculations were determined on a NaNO2 standard curve.

[9] = system: depression mice model; test: In vivo corticosterone induced depression model: sucrose preference test; design: species or system mouse (male C57); conditions: for % Sucrose consumption (ml) ± SD: 2% sucrose, 21 days
Method: In vivo efficacy (ameliorates behavioral despair) of A1 in corticosterone induced model of stress (J. Neurochem., 2018 146, 722 734). […] A1 (20 mg/kg, oral) dissolved in normal saline was given for 3 consecutive weeks following corticosteroid stress. The sucrose preference test was employed, tail suspension test, and forced swim test to evaluate behavioral distress. We noticed that A1 can resurrect mice in stressful situations. […]
Sucrose consumption was employed to evaluate anhedonia, a core hallmark of depression in mice. The animals were allowed unfettered access to both identical bottles, one containing water while the other contained a 2% solution of sucrose, for 21 days.
The below equation was later employed to determine water and sugar consumed by mice:
Sucrose Preference=Sucrose consumed[…]/Total fluid intake.

[10] = system: differentiated SHSY5Y cell cultures; test: Neuroprotective potential in differentiated SHSY5Y after 96 hrs, concentration series with and without corticosterone; type: cell-based, human
[11] = system: p-Erk 44/42; test: Survival pathway protein expression by western blotting in SHSY5Y; type: cell-based, human; conditions: for Relative Protein Expression p ERK 44/42: A1 + Cort.
[12] = different concentrations of A1, 6 hrs

## C=C(C)[C@@H]1CCC(C)=C[C@H]1c1c(O)cc(CCCCC)c(CN2CCOCC2)c1O [A1, 2′-(morpholin-1-ylmethyl)-cannabidiol]
[1]
  viability at 48 h, 20 µM: 114 ± 2.28%
[2]; 20 μM + Cort. 400 μM, compared with corticosterone treated group, SHSY5Y and N2A
  cell viability (in words): the highest number of viable cells were observed in A1 treated line
[2]; Homo sapiens, SH-SY5Y, test compound 20 μM + Cort. 400 μM, 48 hrs, read-out: % Cell viability ± SD, SHSY5Y
  viability at 20 µM: 97.9 ± 1.31%
[3]
  cell viability versus control (in words): increased cell viability versus control
[3]; test compound 20 μM + Cort. 400 μM
  viability at 20 µM: 97.2 ± 1.13%
[3]; test compound alone, 20 μM
  viability at 20 µM: 110 ± 1.61%
[4]; A1 5 μM, 6 hrs
  Relative Protein Expression Anti BDNF: 0.67
[4]; A1 10 μM, 6 hrs
  Relative Protein Expression Anti BDNF: 1.48
[4]; A1 + Cort., 6 hr
  Relative Protein Expression Anti BDNF: 39.43
[4]; A1/Cort., A1 5 μM, 6 hrs
  Relative Protein Expression Anti BDNF: 0.44
[4]; A1/Cort., A1 10 μM, 6 hrs
  Relative Protein Expression Anti BDNF: 1.34
[4]; [12]
  expression of Anti BDNF (in words): increased significantly
[5]; A1 10 μM, 6 hrs
  Relative Protein Expression p TrkB 515: 1.75
[5]; A1 + Cort., 6 hr
  Relative Protein Expression p TrkB 515: 6.675
[5]; A1/Cort., A1 5 μM, 6 hrs
  Relative Protein Expression p TrkB 515: 0.07
[5]; A1/Cort., A1 10 μM, 6 hrs
  Relative Protein Expression p TrkB 515: 1.30
[5]; [12]
  expression of p TrkB 515 (in words): increased significantly except for the expression of p-AKT 473 and p TrkB 515
[6]; A1 5 μM, 6 hrs
  Relative Protein Expression p TrkB 816: 3.11
[6]; A1 10 μM, 6 hrs
  Relative Protein Expression p TrkB 816: 2.91
[6]; A1 + Cort., 6 hr
  Relative Protein Expression p TrkB 816: 23.0422
[6]; A1/Cort., A1 5 μM, 6 hrs
  Relative Protein Expression p TrkB 816: 1.41
[6]; A1/Cort., A1 10 μM, 6 hrs
  Relative Protein Expression p TrkB 816: 2.89
[6]; [12]
  expression of p TrkB 816 (in words): increased significantly
[7]; A1 5 μM
  Relative Protein Expression p ERK 44/42: 4.51
[7]; A1 10 μM
  Relative Protein Expression p ERK 44/42: 8.80
[7]; A1/Cort., A1 5 μM
  Relative Protein Expression p ERK 44/42: 3.70
[7]; A1/Cort., A1 10 μM
  Relative Protein Expression p ERK 44/42: 5.05
[7]; [12]
  expression of p-Erk 44/42 (in words): increased significantly
[8]; 5 μM
  inhibition at 5 µM: 7.1 ± 0.8%
[8]; 10 μM
  inhibition at 10 µM: 12.3%
[9]; compared with stressed mice
  increase of sucrose consumption: more than 50%
[9]; with Cort.
  % Sucrose consumption (ml) ± SD: 78.02±0.99%
[9]; without Cort.
  % Sucrose consumption (ml) ± SD: 83.80±0.80%
[10]; A1 alone 1.25, 2.5, 5, 10, 20 and 40 μM
  cell viability compared to positive control DHF (in words): no significant variation in cell viability when compared to positive control DHF
[10]; Homo sapiens, SH-SY5Y, 96 h, A1 1.25 μM, without Cort
  viability at 1.25 µM: 102%
[10]; Homo sapiens, SH-SY5Y, 96 h, A1 2.5 μM, without Cort
  viability at 2.5 µM: 108%
[10]; Homo sapiens, SH-SY5Y, 96 h, A1 5 μM + Cort 400 μM, 96 hrs
  viability at 5 µM: 103%
[10]; Homo sapiens, SH-SY5Y, 96 h, A1 5 μM, without Cort
  viability at 5 µM: 108%
[10]; Homo sapiens, SH-SY5Y, 96 h, A1 10 μM, without Cort
  viability at 10 µM: 117%
[10]; Homo sapiens, SH-SY5Y, 96 h, A1 20 μM, without Cort
  viability at 20 µM: 115%
[10]; Homo sapiens, SH-SY5Y, 96 h, A1 40 μM, without Cort
  viability at 40 µM: 115%
[10]; concentrations as high as 40 μM, up to 96 hrs, with and without corticosterone
  toxicity (in words): non-toxic even at concentrations as high as 40 μM
[11]; 0 hr
  Relative Protein Expression p ERK 44/42: 1.00
[11]; 0.5 hr
  Relative Protein Expression p ERK 44/42: 1.32
[11]; 1 hr
  Relative Protein Expression p ERK 44/42: 3.29
[11]; 2 hr
  Relative Protein Expression p ERK 44/42: 8.33
[11]; 4 hr
  Relative Protein Expression p ERK 44/42: 9.69
[11]; 6 hr
  Relative Protein Expression p ERK 44/42: 10.62
[11]; A1 for multiple time spans, corticosterone
  expression of p-Erk 44/42 (in words): remarkably increased
